Measured values from patent US8383577B2 (Endo Pharmaceuticals Solutions, Inc., priority 2008, dated 2013).

Experiments:
[1] = cited from earlier work; for CMC: critical micelle concentration; for HLB: hydrophilic-lipophilic balance
[2] = Formulation study: effect of excipient on implant shape and durability (Example 3); type: physicochemical; settings: cartridges about 28% HEMA, about 66.5% HPMA, 5% glycerin
Text: A series of implants was monitored to determine the effect of excipient on implant shape and durability. Each of the polymer cartridges was composed of about 28% HEMA, about 66.5% HPMA and 5% glycerin.

IGF-1 = settings: acromegaly patients on octreotide; cited from earlier work
GH = settings: following a subcutaneous octreotide injection; cited from earlier work

Compound	CMC [1]	HLB [1]	stabilization of the octreotide implant by excipient [2]	also measured
Sucrose monolaurate	0.2 mM	~8	–	–
Triton X-100	0.2 to 0.9 mM	13.5	–	–
CCCCCCCC/C=C\CCCCCCCC(=O)OCCOCC(OCCO)C1OCC(OCCO)C1OCCO (stereo not shown) [Tween 80]	0.012 mM	15	–	–
O=C(O)CO [glycolic acid]	–	–	did not provide a stabilizing effect and resulted in a decrease in integrity	–
OC[C@@H](O)[C@@H](O)[C@H](O)[C@H](O)CO [mannitol]	–	–	did not provide a stabilizing effect and resulted in a decrease in integrity	–
L-cysteinamide, D-phenylalanyl-L-cysteiny-L-phenylalanyl-D-tryptophyl-L-lysyl-L-threonyl-N-[2-hydroxy-1-(hydroxymethyl)propyl]-, cyclic(2→7)-disulfide; [Octreotide, L-cysteinamide, D-phenylalanyl-L-cysteiny-L-phenylalanyl-D-tryptophyl-L-lysyl-L-threonyl-N-[2-hydroxy-1-(hydroxymethyl)propyl]-, cyclic(2→7)-disulfide; [R-(R*,R*)]]	–	–	–	patients with normalization of IGF-1 levels (IGF-1): up to 60 % of patients; time to GH level decrease (GH): usually decrease within two hours
